Results from US20120142606A1, “TUMOR TARGETING PEPTIDES, THERAPEUTIC AND DIAGNOSTIC COMPOSITIONS COMPRESSING THE PEPTIDES” (priority 2009, published 2012).

Legend:
MCF7 cells [1] = test: Killing of MCF7 cells, propidium iodide staining and flow cytometry; assay type: cell-based; conditions: 50 μg/ml peptide, 24 h
Protocol: (§1) Next, we examined to what extent the peptide specifically kills MCF7 cells. White blood cells (WBCs) were used as a control for normal non-cancerous cells. WBCs were isolated from a healthy donor by ficoll hypaque gradient centrifugation. Red blood cells were removed using a red blood cell lysis buffer and the remaining WBCs were used for the experiment. MCF7 cells and WBCs were incubated with 50 μg/ml peptide or medium only for 24 h. Cells were collected, stained with propidium iodide (PI) and analyzed for apoptosis by flow cytometry (FIG. 3). The data was analyzed by gating on life PI negative cells which is depicted as % viable cells on the y-axis.

MCF7 cells [2] = test: Peptide binding to MCF7 breast cancer cells by flow cytometry; conditions: 0.1-100 μg/ml peptide, 4° C., 20 minutes
Protocol: (§2) To assess peptide binding, MCF7 cells were incubated with increasing doses (0.1-100 μg/ml) of the BK-FITC peptide at 4° C. for 20 minutes. Cells were subsequently washed 4 times with PBS and analyzed by flow cytometry. […] Subsequently, we evaluated the specificity of the BK-peptide for breast cancer cells by incubating MCF7 cells in parallel with human peripheral blood mononuclear cells under the same conditions as mentioned above.
(§3) FIG. 2. […] MCF7 cells (left panel) and human peripheral blood mononuclear cells (PBMC) (right panel) were incubated with increasing doses of peptide for 20 min at 4° C. The cells were subsequently analyzed by flow cytometry for mean fluorescence intensity of FITC, depicted on the y-axis.

[3] = test system: human peripheral blood mononuclear cells; test: Peptide binding to peripheral blood mononuclear cells by flow cytometry (specificity); conditions: 0.1-100 μg/ml peptide, 4° C., 20 minutes
Protocol: as §2, §3

White blood cells (WBCs) = test: Killing of white blood cells (normal cell control), propidium iodide staining and flow cytometry; assay type: cell-based; conditions: 50 μg/ml peptide, 24 h, WBCs from a healthy donor
Protocol: as §1

KLAKLAKKLAKLAK-GG-LTVXPWY [BK1-peptide]
killing of MCF7 cells (% viable cells, PI negative) (MCF7 cells [1]): kills MCF7
binding to MCF7 cells, mean fluorescence intensity (MFI) of FITC (MCF7 cells [2]): binds to breast cancer cells
binding to peripheral blood mononuclear cells, mean fluorescence intensity of FITC [3]: did not observe binding
killing of white blood cells (% viable cells, PI negative) (White blood cells (WBCs)): but not white blood cells

KLAKLAKKLAKLAK-GG-LTVXPWY (SEQ ID NO:9) conjugated to fluoresceinisothiocyanate (FITC) [BK1-FITC, BK1-peptide conjugated to fluoresceinisothiocyanate]
binding to MCF7 cells, mean fluorescence intensity (MFI) of FITC (MCF7 cells [2]): dose dependent increase in mean fluorescence intensity
